Assay results reported in patent US6713490B2, “3,4-dihydroquinolin-2(1H)-one compounds as NR2B receptor antagonists” (Pfizer, Inc., priority 2002, dated 2004).
Where a name gives a salt, the structure may show the parent alone.

What was measured:
[1] = target: T1, NR2B subunit (Rattus norvegicus, UniProt P35439+Q00960); test: NR2B binding assay ([3H]-CP-98,113 competition, rat forebrain P2 membrane); conditions: 5 nM [3H]-CP-98,113, rat forebrain P2 membrane
T1 construct: Membranes were prepared by homogenization of forebrain of male CD rats; from tissue; host or cells: rat forebrain P2 membrane
T1 sequence (Q00960 27-1482, other chains not shown): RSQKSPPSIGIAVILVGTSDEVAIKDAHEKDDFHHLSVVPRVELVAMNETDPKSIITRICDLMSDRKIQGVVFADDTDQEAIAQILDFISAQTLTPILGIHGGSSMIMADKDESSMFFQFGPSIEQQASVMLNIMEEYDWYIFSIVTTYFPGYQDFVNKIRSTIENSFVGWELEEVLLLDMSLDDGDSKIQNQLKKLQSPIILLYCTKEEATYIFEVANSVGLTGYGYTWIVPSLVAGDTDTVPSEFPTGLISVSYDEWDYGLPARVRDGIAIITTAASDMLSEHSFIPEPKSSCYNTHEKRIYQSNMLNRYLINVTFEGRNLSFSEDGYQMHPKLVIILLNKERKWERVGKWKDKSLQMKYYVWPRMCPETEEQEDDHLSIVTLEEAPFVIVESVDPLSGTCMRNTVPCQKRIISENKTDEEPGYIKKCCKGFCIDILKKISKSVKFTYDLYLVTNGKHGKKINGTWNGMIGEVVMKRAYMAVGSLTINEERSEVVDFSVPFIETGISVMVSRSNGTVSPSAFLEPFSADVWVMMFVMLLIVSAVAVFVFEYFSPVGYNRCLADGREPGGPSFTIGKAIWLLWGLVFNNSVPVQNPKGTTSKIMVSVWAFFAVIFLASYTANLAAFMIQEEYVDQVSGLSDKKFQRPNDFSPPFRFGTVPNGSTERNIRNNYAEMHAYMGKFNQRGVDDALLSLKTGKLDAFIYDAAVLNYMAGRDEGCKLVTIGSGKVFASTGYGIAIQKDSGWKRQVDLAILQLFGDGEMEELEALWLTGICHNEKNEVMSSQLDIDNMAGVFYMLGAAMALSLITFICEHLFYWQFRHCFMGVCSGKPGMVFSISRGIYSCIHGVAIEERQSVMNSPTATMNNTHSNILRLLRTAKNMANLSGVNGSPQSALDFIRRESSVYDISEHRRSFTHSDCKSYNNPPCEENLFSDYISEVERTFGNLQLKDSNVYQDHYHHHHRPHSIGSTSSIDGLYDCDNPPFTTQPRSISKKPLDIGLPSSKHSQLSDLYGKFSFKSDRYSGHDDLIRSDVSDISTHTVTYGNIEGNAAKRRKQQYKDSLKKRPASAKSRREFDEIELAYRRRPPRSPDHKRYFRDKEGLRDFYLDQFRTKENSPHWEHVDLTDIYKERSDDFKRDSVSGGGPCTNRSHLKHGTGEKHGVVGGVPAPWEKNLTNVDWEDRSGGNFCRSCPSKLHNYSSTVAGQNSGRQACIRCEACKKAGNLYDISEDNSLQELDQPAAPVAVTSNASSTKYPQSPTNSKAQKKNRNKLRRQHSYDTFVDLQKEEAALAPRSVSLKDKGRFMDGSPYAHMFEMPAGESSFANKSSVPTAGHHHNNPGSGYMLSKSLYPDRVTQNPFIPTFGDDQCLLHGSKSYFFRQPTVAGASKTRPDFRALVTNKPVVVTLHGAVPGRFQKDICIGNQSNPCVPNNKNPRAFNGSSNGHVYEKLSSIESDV
Procedure: The activity of the 3,4-dihydroquinolin-2(1H)-one compounds of the present invention, as NR2B antagonists, is determined by their ability to inhibit the binding of NR2B subunit at its receptor sites employing radioactive ligands.
The NR2B antagonist activity of the 3,4-dihydroquinolin-2(1H)-one compounds is evaluated by using the standard assay procedure described in, for example, J. Pharmacol., 331, pp117-126, 1997. […] More specifically, the assay is carried out as follows.
Membranes were prepared by homogenization of forebrain of male CD rats weighing between 170˜190 g by using glass-Teflon homogenizer in 0.32 M sucrose at 4° C. […]
For the saturation assay, receptor saturation was determined by incubating [^3H]-CP-98,113 and 50 μg protein of P2 membrane for 60 minutes at room temperature in a final 100 μl of incubation buffer (50 mM Tris HCl, pH7.4). Total and non-specific bindings (in the presence of 10 μM of unlabeled CP-98,113) were determined in a range of [^3H]-CP-98113 concentrations (0.625 nM to 60 nM). […]
For the competition assay, test compounds were incubated in duplicate with 5 nM [^3H]-CP-98,113 and 50 μg protein of P2 membrane for 60 minutes at room temperature in a final 100 μl of 50 mM Tris HCl buffer (pH7.4). Nonspecific binding was determined by 10 μM of unlabeled CP-98,113 (25 μl). […]

[2] = target: NR2B (Homo sapiens, UniProt Q05586+Q13224); test: Functional activity (method not described); format: cell-based
Chain of NR2B (Q13224 27-1484, species assumed, other chains not shown): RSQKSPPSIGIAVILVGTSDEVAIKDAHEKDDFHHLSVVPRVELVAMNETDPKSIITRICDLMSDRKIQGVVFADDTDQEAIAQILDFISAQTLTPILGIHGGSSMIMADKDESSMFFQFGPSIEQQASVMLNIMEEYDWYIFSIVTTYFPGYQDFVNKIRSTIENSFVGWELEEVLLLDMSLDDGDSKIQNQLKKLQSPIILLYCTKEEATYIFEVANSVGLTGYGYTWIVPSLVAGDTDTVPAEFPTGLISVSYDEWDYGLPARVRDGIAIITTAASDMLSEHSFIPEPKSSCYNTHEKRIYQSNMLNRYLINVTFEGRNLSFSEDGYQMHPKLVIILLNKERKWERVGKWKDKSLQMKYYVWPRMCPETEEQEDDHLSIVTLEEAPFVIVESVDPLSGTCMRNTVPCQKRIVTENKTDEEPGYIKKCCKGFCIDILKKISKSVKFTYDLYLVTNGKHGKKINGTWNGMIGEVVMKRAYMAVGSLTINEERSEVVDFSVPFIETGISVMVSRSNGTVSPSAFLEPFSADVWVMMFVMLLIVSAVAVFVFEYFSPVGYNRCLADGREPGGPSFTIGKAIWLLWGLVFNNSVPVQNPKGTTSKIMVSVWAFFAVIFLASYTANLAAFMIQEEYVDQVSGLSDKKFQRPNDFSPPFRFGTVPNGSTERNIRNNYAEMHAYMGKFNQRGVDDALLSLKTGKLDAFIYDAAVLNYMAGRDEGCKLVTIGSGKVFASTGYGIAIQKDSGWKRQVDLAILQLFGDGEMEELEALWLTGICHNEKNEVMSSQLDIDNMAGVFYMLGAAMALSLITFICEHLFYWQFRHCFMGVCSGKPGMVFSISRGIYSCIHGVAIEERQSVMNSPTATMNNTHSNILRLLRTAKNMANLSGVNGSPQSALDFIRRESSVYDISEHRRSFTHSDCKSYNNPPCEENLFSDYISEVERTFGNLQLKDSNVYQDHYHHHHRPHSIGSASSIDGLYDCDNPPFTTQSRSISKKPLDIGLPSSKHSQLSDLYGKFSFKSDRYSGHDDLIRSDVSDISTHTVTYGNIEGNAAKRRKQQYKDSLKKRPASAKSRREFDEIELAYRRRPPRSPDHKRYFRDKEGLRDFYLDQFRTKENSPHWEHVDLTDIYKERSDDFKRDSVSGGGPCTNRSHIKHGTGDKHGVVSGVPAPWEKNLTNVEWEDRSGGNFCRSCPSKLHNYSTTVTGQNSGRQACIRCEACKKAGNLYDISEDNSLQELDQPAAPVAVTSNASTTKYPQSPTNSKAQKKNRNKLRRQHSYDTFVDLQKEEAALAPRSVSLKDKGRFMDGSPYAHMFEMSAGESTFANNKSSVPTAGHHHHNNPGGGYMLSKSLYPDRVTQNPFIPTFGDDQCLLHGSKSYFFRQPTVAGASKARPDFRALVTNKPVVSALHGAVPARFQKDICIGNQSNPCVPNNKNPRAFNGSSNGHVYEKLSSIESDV

[3] = target: T2, HERG potassium channel (Homo sapiens, UniProt Q12809); test: Dofetilide binding assay ([3H]-dofetilide competition, membranes of HEK-293 cells expressing the HERG product)
T2 construct: expressed in transfected cells; host or cells: HEK-293
T2 sequence (Q12809 whole entry): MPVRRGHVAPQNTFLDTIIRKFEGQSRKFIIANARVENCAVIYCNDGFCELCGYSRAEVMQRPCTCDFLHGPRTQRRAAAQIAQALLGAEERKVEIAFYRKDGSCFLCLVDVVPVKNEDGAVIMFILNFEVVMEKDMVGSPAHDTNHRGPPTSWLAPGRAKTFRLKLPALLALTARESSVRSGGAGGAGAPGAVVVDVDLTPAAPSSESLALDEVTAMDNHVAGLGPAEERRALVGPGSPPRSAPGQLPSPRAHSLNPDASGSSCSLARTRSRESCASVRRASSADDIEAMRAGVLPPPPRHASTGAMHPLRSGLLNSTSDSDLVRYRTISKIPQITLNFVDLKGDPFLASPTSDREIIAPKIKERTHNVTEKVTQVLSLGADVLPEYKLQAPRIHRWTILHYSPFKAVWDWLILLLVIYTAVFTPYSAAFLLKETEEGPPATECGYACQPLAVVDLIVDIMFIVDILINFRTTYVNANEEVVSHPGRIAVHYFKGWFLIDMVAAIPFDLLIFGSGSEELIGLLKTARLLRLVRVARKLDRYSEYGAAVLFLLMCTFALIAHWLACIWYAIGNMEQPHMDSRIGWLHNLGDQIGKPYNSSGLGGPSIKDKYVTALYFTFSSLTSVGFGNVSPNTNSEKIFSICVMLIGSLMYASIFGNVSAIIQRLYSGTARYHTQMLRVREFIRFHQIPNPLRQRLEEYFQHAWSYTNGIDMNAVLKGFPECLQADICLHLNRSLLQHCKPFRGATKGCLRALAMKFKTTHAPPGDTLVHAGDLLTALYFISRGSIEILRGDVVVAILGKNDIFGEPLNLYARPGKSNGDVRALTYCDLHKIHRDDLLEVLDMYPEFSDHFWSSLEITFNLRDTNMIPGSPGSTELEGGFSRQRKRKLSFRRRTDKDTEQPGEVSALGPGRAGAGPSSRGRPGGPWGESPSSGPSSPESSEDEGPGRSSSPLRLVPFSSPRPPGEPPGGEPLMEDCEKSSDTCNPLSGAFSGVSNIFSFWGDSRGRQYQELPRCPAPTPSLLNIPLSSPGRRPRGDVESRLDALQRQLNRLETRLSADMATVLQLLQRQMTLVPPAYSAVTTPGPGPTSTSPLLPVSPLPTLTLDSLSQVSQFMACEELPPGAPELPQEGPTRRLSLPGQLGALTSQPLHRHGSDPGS

melting point | SMILES | Ki [1] [nM] | IC50 [2] [nM] | further results
246.9 °C | COc1cccc(C2(O)CCN(CC(O)c3ccc4c(c3)CCC(=O)N4)CC2)c1 (stereo not drawn) (as salt: hydrochloride) [Example 2, 6-{1-Hydroxy-2-[4-hydroxy-4-(3-methoxyphenyl)-1-piperidinyl]ethyl}-3,4-dihydroquinolin-2(1H)-one Hydrochloride] |  |  | 
 | C[C@H]([C@H](O)c1ccc2c(c1)CCC(=O)N2)N1CCC(O)(c2ccc(F)cc2)CC1 [reference compound] | 7 |  | 
 | C[C@H]([C@H](O)c1ccc2c(c1)CCC(=O)N2)N1CCC(O)(c2ccccc2)CC1 |  | 22.4 | 
98 to 100 °C (dec.) | Cc1cccc(C2(O)CCN(CC(O)c3ccc4c(c3)CCC(=O)N4)CC2)c1 (stereo not drawn) (as salt: mesylate) [Example 4, 6-[1-Hydroxy-2-[4-hydroxy-4-(3-methylphenyl)piperidin-1-yl]ethyl]-3,4-dihydroquinolin-2(1H)-one mesylate] |  |  | 
 | O=C1CCc2cc([C@@H](O)CN3CCC(O)(c4cccc(F)c4)CC3)ccc2N1 | 3.5 | 11.9 | Ki ([3]; 5 nM [3H]-dofetilide, HERG homogenate of HEK-293 cells): 8300 nM; TI (Defetilide/NR2B) ([3]; TI = Dofetilide Binding Ki [μM]/NR2B Binding Ki [nM] x 1000): 2400

SMILES | melting point | Ki [1] [nM] | IC50 [2] [nM] | further results
CS(=O)(=O)O.O=C1CCc2cc([C@@H](O)CN3CCC(O)(c4cccc(F)c4)CC3)ccc2N1 | 180 to 182 °C |  |  | 
